Like-named read-outs stand apart in the source and are kept apart here.
Tests used:
clinical = conditions: both, human, in vivo; for AUC(0-inf): AUCinf
Method: The final treatment administered was 3.8 mg on a 10 cm^2 patch using an applicator with 0.52 Joule of application energy in the intracutaneous microneedle system described herein. The products tested were:
This was a single-center, open-label, randomized five-way crossover study (Part 1) followed by a sequential study of two additional treatments (Parts 2 and 3). After obtaining informed consent and establishing eligibility, each subject received each of the seven study treatments once, followed by in-clinic monitoring and extensive blood sample collection for pharmacokinetic analysis. […] Plasma samples from the initial dosing days were sent to the analytical laboratory for analysis, and tolerability for each of the dose levels was summarized. […] During Part 3, subjects received a single 3.8 mg patch (applied with a 0.52 J applicator) and also completed identical procedures to the previous dosing days. After completion of the seven dosing days, subjects were assessed one final time and dismissed from the study.
Twenty subjects were enrolled in the study, 10 males and 10 females. The subjects mean age was 29 years±3.5 years with a mean BMI of 24.4±3.5.
PK parameters were summarized by treatment group using descriptive statistics (arithmetic means, standard deviations, coefficients of variation, sample size, minimum, maximum, and median).
Graphs of apparent dose linearity and proportionality of PK parameters (AUCt, AUCinf and Cmax) were compiled.

[1] = 10 mg oral, Seaber1997, cited from earlier work
migraine = conditions: cited from earlier work
[2] = In vitro dissolution, USP Paddle over Disk apparatus (USP apparatus 5); assay type: physicochemical; conditions: M207 1.9 mg patch
Method: In vitro dissolution of […] 1.9 mg patches were evaluated using standard USP Paddle over Disk apparatus (USP apparatus 5) with Distek […] 6-position dissolution tester. The paddle height was set at 25 mm above patch and rotated at 50 RPM. An USP vessel was filled with degassed 500 mL PBS dissolution medium and the temperature was controlled at 32° C. A full patch assembly containing the coated patch adhered to the center of an inner ring and then attached to an outer ring was inserted along the vessel wall into the vessel with the coated microprojections facing upright. […] […] patches stored at room temperature and at 40° C./75% relative humidity for 10 months were evaluated.

[3] = NASAL 2.5 mg, 1 hour, Charlesworth et al, 2003
[4] = NASAL 2.5 mg, 2 hour, Charlesworth et al, 2003
[5] = NASAL 2.5 mg, 4 hour, Charlesworth et al, 2003
[6] = ODT 2.5 mg, 1 hour, Dowson et al, 2002
[7] = ODT 2.5 mg, 2 hour, Dowson et al, 2002
[8] = TABLET 2.5 mg, 1 hour, Pascual et al, 2000
[9] = TABLET 2.5 mg, 1 hour, Steiner et al, 2003
[10] = TABLET 2.5 mg, 2 hour, Pascual et al, 2000
[11] = TABLET 2.5 mg, 2 hour, Steiner et al, 2003
[12] = TABLET 5 mg, 1 hour, Dahlof et al 1998
[13] = TABLET 5 mg, 1 hour, Geraud et al, 2000
[14] = TABLET 5 mg, 2 hour, Dahlof et al 1998
[15] = TABLET 5 mg, 2 hour, Geraud et al, 2000
[16] = TABLET 5 mg, 4 hour, Geraud et al, 2000
[17] = TABLET 10 mg, 1 hour, Dahlof et al 1998
[18] = TABLET 10 mg, 2 hour, Dahlof et al 1998

SMILES: CN(C)CCc1c[nH]c2ccc(C[C@H]3COC(=O)N3)cc12 [Zolmitriptan, zolmitriptan]
- Tmax, Mean (SD) (clinical): 17.10 (11.82)
- Tmax, Median (clinical): 17.5 min
- t1/2, Mean (SD) (clinical): 91.70 (18.7)
- t1/2, Median (clinical): 96.2 min
- AUC(0-t) (clinical; 0.48 mg, AUC2 hrs, Mean (SD)): 2.11 ng·h/mL
- AUC(0-t) (clinical; 0.48 mg, AUC2 hrs, Median): 2.11 ng·h/mL
- AUC(0-inf) (clinical; 0.48 mg, Mean (SD)): 3.81 ng·h/mL
- AUC(0-inf) (clinical; 0.48 mg, Median): 3.78 ng·h/mL
- AUC(0-t) (clinical; 0.48 mg, AUCt, Mean (SD)): 2.81 ng·h/mL
- AUC(0-t) (clinical; 0.48 mg, AUCt, Median): 2.78 ng·h/mL
- Cmax (clinical; 0.48 mg, Mean (SD)): 1.84 ng/mL
- Cmax (clinical; 0.48 mg, Median): 1.8 ng/mL
- Tmax (clinical; 0.48 mg, Tmax, Mean (SD)): 17.3 min
- Tmax (clinical; 0.48 mg, Tmax, Median): 20 min
- half-life (clinical; 0.48 mg, t1/2, Mean (SD)): 69.1 min
- half-life (clinical; 0.48 mg, t1/2, Median): 64.6 min
- AUCinf, Median (clinical; 1.9 mg): 14.5 ng·h/mL
- AUC(0-t) (clinical; 1.9 mg, AUC2 hrs, Mean (SD)): 7.36 ng·h/mL
- AUC(0-t) (clinical; 1.9 mg, AUC2 hrs, Median): 7.75 ng·h/mL
- AUC(0-inf) (clinical; 1.9 mg, Mean (SD)): 14.1 ng·h/mL
- AUC(0-t) (clinical; 1.9 mg, AUCt, Mean (SD)): 12.3 ng·h/mL
- AUC(0-t) (clinical; 1.9 mg, AUCt, Median): 12.7 ng·h/mL
- Cmax (clinical; 1.9 mg, Mean (SD)): 6.76 ng/mL
- Cmax (clinical; 1.9 mg, Median): 6.4 ng/mL
- Tmax (clinical; 1.9 mg, Tmax, Mean (SD)): 17.9 min
- Tmax (clinical; 1.9 mg, Tmax, Median): 20 min
- half-life (clinical; 1.9 mg, t1/2, Mean (SD)): 87.8 min
- half-life (clinical; 1.9 mg, t1/2, Median): 84.7 min
- t1/2, Mean (SD) (clinical; 3.8 mg): 91.00 (18.80)
- AUC(0-t) (clinical; 3.8 mg, AUC2 hrs, Mean (SD)): 19.3 ng·h/mL
- AUC(0-t) (clinical; 3.8 mg, AUC2 hrs, Median): 18.4 ng·h/mL
- AUC(0-inf) (clinical; 3.8 mg, Mean (SD)): 33.8 ng·h/mL
- AUC(0-inf) (clinical; 3.8 mg, Median): 32.2 ng·h/mL
- AUC(0-t) (clinical; 3.8 mg, AUCt, Mean (SD)): 31.6 ng·h/mL
- AUC(0-t) (clinical; 3.8 mg, AUCt, Median): 29.9 ng·h/mL
- Cmax (clinical; 3.8 mg, Mean (SD)): 22.6 ng/mL
- Cmax (clinical; 3.8 mg, Median): 19.9 ng/mL
- Tmax (clinical; 3.8 mg, Tmax, Mean (SD)): 16.1 min
- Tmax (clinical; 3.8 mg, Tmax, Median): 15 min
- half-life (clinical; 3.8 mg, t1/2, Median): 87.2 min
- Tmax (clinical; Tmax, Mean (SD)): 18.4 min
- Tmax (clinical; Tmax, Median): 20 min
- Tmax (clinical; mean Tmax): 16.1 to 18.4 min
- Cmax (clinical; po, 2.5 mg, Median): 3.7 ng/mL
- half-life (clinical; t1/2, Mean (SD)): 77.2 min
- half-life (clinical; t1/2, Median): 82 min
- AUC0-last ([1]; (F)): 108.6 ng·h/mL
- Cmax ([1]; (F)): 20.9 ng/mL
- AUC0-last ([1]; (M)): 84.4 ng·h/mL
- Cmax ([1]; (M)): 16.6 ng/mL
- % PAIN FREE (migraine; [3]): 10.6%
- % PAIN RELIEF (migraine; [3]): 40.2%
- % PAIN FREE (migraine; [4]): 21.0%
- % PAIN RELIEF (migraine; [4]): 55.4%
- % PAIN FREE (migraine; [5]): 38.4%
- % PAIN RELIEF (migraine; [5]): 63.4%
- % PAIN FREE (migraine; [6]): 7.8%
- % PAIN RELIEF (migraine; [6]): 45.0%
- % PAIN FREE (migraine; [7]): 27.0%
- % PAIN RELIEF (migraine; [7]): 63.0%
- % PAIN FREE (migraine; ODT 2.5 mg, 4 hour, Dowson et al, 2002): 37.0%
- % PAIN FREE (migraine; [8]): 10.4%
- % PAIN RELIEF (migraine; [8]): 35.3%
- % PAIN FREE (migraine; [9]): 5.7%
- % PAIN RELIEF (migraine; [9]): 25.1%
- % PAIN FREE (migraine; [10]): 35.6%
- % PAIN RELIEF (migraine; [10]): 66.8%
- % PAIN FREE (migraine; [11]): 26.3%
- % PAIN RELIEF (migraine; [11]): 59.6%
- % PAIN RELIEF (migraine; TABLET 2.5 mg, 4 hour, Steiner et al, 2003): 25.1%
- % PAIN FREE (migraine; [12]): 10.0%
- % PAIN RELIEF (migraine; [12]): 44.0%
- % PAIN FREE (migraine; [13]): 7.8%
- % PAIN RELIEF (migraine; [13]): 34.2%
- % PAIN FREE (migraine; [14]): 39.0%
- % PAIN RELIEF (migraine; [14]): 66.0%
- % PAIN FREE (migraine; [15]): 29.3%
- % PAIN RELIEF (migraine; [15]): 58.7%
- % PAIN FREE (migraine; [16]): 54.6%
- % PAIN RELIEF (migraine; [16]): 80.5%
- % PAIN FREE (migraine; [17]): 9.0%
- % PAIN RELIEF (migraine; [17]): 40.0%
- % PAIN FREE (migraine; [18]): 39.0%
- % PAIN RELIEF (migraine; [18]): 71.0%
- pain freedom at 2 hours (migraine; lowest oral dose): 29%
- pain relief at 2 hours (migraine; lowest oral dose): 62%
- Percent Dissolution (% D) ([2]; E-beam irradiated, stored at 40° C./75% RH for 10 months, 0 s): 0%
- Percent Dissolution (% D) ([2]; E-beam irradiated, stored at 40° C./75% RH for 10 months, 20 s): 5-10%
- Percent Dissolution (% D) ([2]; E-beam irradiated, stored at 40° C./75% RH for 10 months, 40 s): 10-50%
- Percent Dissolution (% D) ([2]; E-beam irradiated, stored at 40° C./75% RH for 10 months, 60 s): 50-100%
- Percent Dissolution (% D) ([2]; E-beam irradiated, stored at 40° C./75% RH for 10 months, 80 s): 100%
- Percent Dissolution (% D) ([2]; E-beam irradiated, stored at 40° C./75% RH for 10 months, 100 s): 100%
- Percent Dissolution (% D) ([2]; E-beam irradiated, stored at RT for 10 months, 0 s): 0%
- Percent Dissolution (% D) ([2]; E-beam irradiated, stored at RT for 10 months, 20 s): 60-80%
- Percent Dissolution (% D) ([2]; E-beam irradiated, stored at RT for 10 months, 40 s): 90-100%
- Percent Dissolution (% D) ([2]; E-beam irradiated, stored at RT for 10 months, 60 s): 100%
- Percent Dissolution (% D) ([2]; E-beam irradiated, stored at RT for 10 months, 80 s): 100%
- Percent Dissolution (% D) ([2]; E-beam irradiated, stored at RT for 10 months, 100 s): 100%
- Percent Dissolution (% D) ([2]; non-irradiated, stored at 40° C./75% RH for 10 months, 0 s): 0%
- Percent Dissolution (% D) ([2]; non-irradiated, stored at 40° C./75% RH for 10 months, 20 s): 0%
- Percent Dissolution (% D) ([2]; non-irradiated, stored at 40° C./75% RH for 10 months, 40 s): 10-40%
- Percent Dissolution (% D) ([2]; non-irradiated, stored at 40° C./75% RH for 10 months, 60 s): 90-100%
- Percent Dissolution (% D) ([2]; non-irradiated, stored at 40° C./75% RH for 10 months, 80 s): 100%
- Percent Dissolution (% D) ([2]; non-irradiated, stored at 40° C./75% RH for 10 months, 100 s): 100%
